Experimental data from patent US11304964B2, “Bolaamphiphilic compounds, compositions and uses thereof” (priority 2012, dated 2022).

Columns and labels:
[1] = Tenofovir encapsulation in bolaamphiphile vesicles (UV absorbance after Sephadex G50 separation); type: physicochemical
Description: Bolaamphiphiles, cholesterol, and CHMES (2:1:1 mole ratio) are dissolved in chloroform or a suitable solvent. […] The solvents are evaporated under vacuum and the resultant thin films are hydrated in 0.2 mg/mL CF solution in PBS and probe-sonicated (Vibra-Cell VCX130 sonicator, Sonics and Materials Inc., Newtown, Conn., USA) with amplitude 20%, pulse on: 15 sec, pulse off: 10 sec to achieve homogenous vesicle dispersions. Vesicle size and zeta potential were determined using a Zetasizer Nano ZS (Malvern Instruments, UK).
Methods were established to determine quantitatively the amount of the encapsulated tenofovir based on a UV absorption and determined the percent of tenofovir encapsulation by various vesicle formulations (data not shown). […] One objective of this work was to achieve the maximum amount of tenofovir encapsulated per vesicle along with a minimum loss of the non-encapsulated drug. Accordingly, several parameters were examined, such as varying the ratio among the vesicle components, changing the ratio of tenofovir to bolaamphiphiles, varying the pH of the hydration solution and also adding to the formulation additional additives, in the attempt to increase the encapsulation capacity of the vesicles.
In particular, in order to maximize tenofovir encapsulation the following parameters were studied: (1) tenofovir to GLH ratio; (2) adjusting the concentrations of cholestyrl hemisuccinate (CHEM) and cholesterol (CHOL), components that are used in the vesicle formulation, (3) examining several buffers and pHs in the encapsulation process, (4) time of sonication, and (5) tenofovir concentration, and (6) addition of stearyl amine to the vesicle formulation to enhance encapsulation by complexation with tenofovir.
The vesicles were prepared from formulations with and without SA and the non-encapsulated tenofovir (free tenofovir) was separated from the encapsulated tenofovir on Sephadex G50 column and the absorbance at 260 nm of each fraction collected from the column was read.

[2] = Tenofovir concentration in brain after i.v. tenofovir-loaded vesicles (HPLC-UV of brain homogenate); type: in vivo, mice
Source text: Protein precipitation was accomplished by adding trichloroacetic acid (TCA) at a final concentration of 3.75%, providing a clear supernatant by centrifugation. This supernatant was neutralized by 1% sodium hydroxide solution and the neutralized extract was examined by HPLC with a UV detector, using an isocratic method with 10% aceto-nitrile and 90% buffer of triethyl amine in water adjusted to pH 5.4 with concentrated phosphoric acid. When applied to a solution of tenofovir in buffer without the brain extract, the retention time was 17.3 min (FIG. 8 Panel A). […] The broad peak at 22.5 min overlapped the peak of the tenofovir at 17 min (compare FIG. 8 Panel B to FIG. 8 Panel A) and would interfere with the determination of tenofovir concentration in the extract. To narrow the peak of the endogenous compound with the Rt of 22.5 min, a solid phase extraction (SPE) method was employed, using BOND ELUT-C18 column. After the treatment with SPE some peaks disappeared and the others became narrower.
Different concentrations of tenofovir were then spiked into a supernatant obtained after deproteinization of brain homogenate with TCA and centrifugation. The supernatant with the tenofovir was loaded into the SPE cartridge, which was conditioned by 3 ml methanol and 3 ml of 150 mM ammonium acetate (pH=5.0). After washing with 900 μl of 100 mM ammonium acetate (pH=7.0), in order to obtain less interference at the retention time of each component, the column was eluted by 500 μl of methanol to collect the tenofovir. The solvent was removed under nitrogen at 60° C. The extracted sample was dissolved into 120 μl of water and methanol solution (90:10, v/v) and injected into the HPLC.
In view of the conditions for the determination of tenofovir in brain homogenates established herein, mice were injected with 7.5 mg/kg of tenofovir encapsulated in vesicles prepared as for Table 5 above that contained the optimal GLH-55b and SA and brain homogenates were prepared from the brains of these mice for the determination of tenofovir concentrations. […] This concentration value is significant and should have a therapeutic affect against HIV.
A subsequent in vivo experiment was carried out as above but with testing over different periods of time from of 15 min, 30 min, 60 min and 120 min after IV injection the amount of tenofovir was in micro gr/grm brain 6.2, 2.2, 1.0 and 0.5 respectively. While the free tenofovir injected had levels of 0 less than 0.2 micrograms/gr brain. Thus indicating the efficacy of the vesicles to delivery tenofovir to the brain.

[3] = human subjects treated orally with 300 mg tenofovir; cited from earlier work
[4] = Pharmacokinetic studies, first set (LC-MS, blood and brain); settings: for half-life: mouse, iv, 34 mg/kg
Description: The chromatographic separation was performed with an HPLC Agilent 1100 instrument and Auto-sampler G 1329A ALS 1200 Series with Frizzier G1330B FC/ALS Therm, at a temperature of 4° C., using a reverse phase Kromasile 100A C18 250×2.0 (5 μm) column at 30° C. under gradient conditions. The mobile phase consisted of two solvents: (A) acetonitrile and (B) 0.5% formic acid in water and was operated under the following conditions:
The MS/MS detector was an Ion Trap MS Esquire 3000 Plus (Bruker Daltonics), operating in the ESI positive polarity mode. The internal standard was 2′-deoxyadenosine 5′-phosphate.
After establishing conditions for the LC-MS as described above, brain homogenate and blood samples were prepared and spiked known concentrations of tenofovir and a fixed concentration of the internal standard into the blood samples and the brain homogenates. The specimens were then processed by adding 180 μL of 10% Tri Chloro Acetic acid (TCA) to 300 μL of the homogenate followed by centrifugation to obtain a clear solution of blood or brain extracts. The supernatant that was obtained by the centrifugation was neutralized with 200 μL of 1% NaOH. The MS signals that were obtained from each sample were plotted as a function of the spiked tenofovir concentration to obtain calibration curves for the blood (FIG. 17A) and for the brain (FIG. 17B).
For the PK studies, vesicles optimized as described above were used for the delivery of tenofovir into the brain. […] The vesicles were prepared by film hydration followed by sonication using a HEPES hydration buffer.
In the first set of the PK experiments, mice (average weight was 22 g per mouse) were injected with vesicles that contained encapsulated tenofovir or with empty vesicles followed by free tenofovir (4 mice per group). […] The dose of the total tenofovir was 34 mg/kg, out of which 6.8 mg/kg was encapsulated (only when encapsulated tenofovir was injected). […] Before the injection of the test material, mice were pretreated with 0.5 mg/kg pyridostigmine to inhibit choline esterases in the blood (unless otherwise stated), since vesicles that contain GLH-20 release their content in presence of choline esterases. At various times after the injection (15, 30, 75, 120 and 240 min), blood samples were withdrawn and the mice were perfused with 10 mL PBS and sacrificed. Brains were immediately removed after sacrificing the mice and brain homogenates were prepared by homogenizing the brains in PBS (4 mL PBS per gram brain). Extracts of the homogenates were then prepared by adding 180 μL of 10% TCA to 300 μL of the homogenate followed by centrifugation to obtain a clear solution of the brain extract. The supernatant that was obtained by the centrifugation was neutralized with 200 μL of 1% NaOH. Tenofovir concentration in the clear brain extract was determined by LC-MS, using the calibration curve which is described above in FIG. 17. The blood samples were centrifuged to separate the serum from the blood cells and processed in the same way as the brain homogenates.

[5] = HEPES pH 7.5, GLH 19/20 (2:1) 10 mg/ml, SA 1.25 mg/ml, tenofovir 5 mg/ml, standard CHOL/CHEMS
[6] = HEPES pH 7.5, GLH 19/20 (2:1) 10 mg/ml, SA 2.5 mg/ml, tenofovir 5 mg/ml, standard CHOL/CHEMS
[7] = HEPES pH 7.5, GLH 19/20 (2:1) 10 mg/ml, SA 3.5 mg/ml, tenofovir 5 mg/ml, standard CHOL/CHEMS
[8] = HEPES pH 7.5, GLH 19/20 (2:1) 10 mg/ml, tenofovir 1 mg/ml, standard CHOL/CHEMS
[9] = HEPES pH 7.5, GLH 19/20 (2:1) 10 mg/ml, tenofovir 2 mg/ml, ½ the standard amount of cholesterol and cholesteryl hemisuccinate
[10] = HEPES pH 7.5, GLH 19/20 (2:1) 15 mg/ml, SA 2.5 mg/ml, tenofovir 5 mg/ml, standard CHOL/CHEMS
[11] = HEPES pH 7.5, GLH 19/20 (2:1) 15 mg/ml, tenofovir 1 mg/ml, standard CHOL/CHEMS
[12] = HEPES pH 7.5, GLH 19/20 (2:1) 15 mg/ml, tenofovir 2 mg/ml, ½ the standard amount of cholesterol and cholesteryl hemisuccinate
[13] = HEPES pH 8, GLH 19/20 (2:1) 15 mg/ml, SA 2.5 mg/ml, tenofovir 5 mg/ml, standard CHOL/CHEMS
[14] = HEPES pH 8, GLH 19/20 (2:1) 15 mg/ml, tenofovir 1 mg/ml, standard CHOL/CHEMS
[15] = TRIS pH 8, GLH 19/20 (2:1) 10 mg/ml, SA 2.5 mg/ml, tenofovir 5 mg/ml, standard CHOL/CHEMS
[16] = TRIS pH 8, GLH 19/20 (2:1) 10 mg/ml, tenofovir 1 mg/ml, standard CHOL/CHEMS
[17] = TRIS pH 8, GLH 19/20 (2:1) 10 mg/ml, tenofovir 2 mg/ml, standard CHOL/CHEMS
[18] = TRIS pH 8, GLH 19/20 (2:1) 10 mg/ml, tenofovir 5 mg/ml, standard CHOL/CHEMS
[19] = TRIS pH 8, GLH 19/20 (2:1) 20 mg/ml, tenofovir 5 mg/ml, standard CHOL/CHEMS

C[C@H](Cn1cnc2c(N)ncnc21)OCP(=O)(O)O [tenofovir, ({[(2R)-1-(6-amino-9H-purin-9-yl)propan-2-yl]oxy}methyl)phosphonic acid]
% tenofovir encapsulation [1, 5]: 15.9%
Ratio of tenofovir encapsulated to bolaamphiphiles [1, 5]: 0.062 mg/mg
% tenofovir encapsulation [1, 6]: 21.4%
Ratio of tenofovir encapsulated to bolaamphiphiles [1, 6]: 0.107 mg/mg
% tenofovir encapsulation ([1]; HEPES pH 7.5, GLH 19/20 (2:1) 10 mg/ml, SA 2.5 mg/ml, tenofovir 5 mg/ml, ½ the standard amount of cholesterol and cholesteryl hemisuccinate): **22%
% tenofovir encapsulation [1, 7]: 30.9%
Ratio of tenofovir encapsulated to bolaamphiphiles [1, 7]: 0.155 mg/mg
% tenofovir encapsulation [1, 8]: 17.4%
mg tenofovir encapsulated/mg bola [1, 8]: 0.026 mg tenofovir encapsulated/mg bola
mg tenofovir encapsulated/mg bola ([1]; HEPES pH 7.5, GLH 19/20 (2:1) 10 mg/ml, tenofovir 2 mg/ml, standard CHOL/CHEMS): 0.024 mg tenofovir encapsulated/mg bola
% tenofovir encapsulation [1, 9]: **16.5%
mg tenofovir encapsulated/mg bola [1, 9]: **0.033 mg tenofovir encapsulated/mg bola
% tenofovir encapsulation ([1]; HEPES pH 7.5, GLH 19/20 (2:1) 10 mg/ml, tenofovir 5 mg/ml, standard CHOL/CHEMS): 7.8%
% tenofovir encapsulation ([1]; HEPES pH 7.5, GLH 19/20 (2:1) 10 mg/ml, tenofovir 7.5 mg/ml, standard CHOL/CHEMS): 3.8%
% tenofovir encapsulation [1, 10]: 18.6%
Ratio of tenofovir encapsulated to bolaamphiphiles [1, 10]: 0.08 mg/mg
% tenofovir encapsulation [1, 11]: 38.6%
mg tenofovir encapsulated/mg bola [1, 11]: 0.026 mg tenofovir encapsulated/mg bola
% tenofovir encapsulation ([1]; HEPES pH 7.5, GLH 19/20 (2:1) 15 mg/ml, tenofovir 2 mg/ml, standard CHOL/CHEMS): 18.4, %
% tenofovir encapsulation [1, 12]: **22.5%
mg tenofovir encapsulated/mg bola [1, 12]: **0.033 mg tenofovir encapsulated/mg bola
% tenofovir encapsulation [1, 13]: 23%
Ratio of tenofovir encapsulated to bolaamphiphiles [1, 13]: 0.077 mg/mg
% tenofovir encapsulation [1, 14]: 31.2%
mg tenofovir encapsulated/mg bola [1, 14]: 0.021 mg tenofovir encapsulated/mg bola
% tenofovir encapsulation ([1]; TRIS pH 8, GLH 19/20 (2:1) 5 mg/ml, tenofovir 1 mg/ml in hydration solution, standard CHOL/CHEMS): 4%
mg tenofovir encapsulated/mg bola ([1]; TRIS pH 8, GLH 19/20 (2:1) 5 mg/ml, tenofovir 1 mg/ml, standard CHOL/CHEMS): 0.008 mg tenofovir encapsulated/mg bola
% tenofovir encapsulation [1, 15]: 12.7%
Ratio of tenofovir encapsulated to bolaamphiphiles [1, 15]: 0.064 mg/mg
% tenofovir encapsulation [1, 16]: 11%
mg tenofovir encapsulated/mg bola [1, 16]: 0.011 mg tenofovir encapsulated/mg bola
% tenofovir encapsulation [1, 17]: 9%
mg tenofovir encapsulated/mg bola [1, 17]: 0.018 mg tenofovir encapsulated/mg bola
% tenofovir encapsulation [1, 18]: 6%
mg tenofovir encapsulated/mg bola [1, 18]: 0.03 mg tenofovir encapsulated/mg bola
mg tenofovir encapsulated/mg bola ([1]; TRIS pH 8, GLH 19/20 (2:1) 15 mg/ml, tenofovir 1 mg/ml, standard CHOL/CHEMS): 0.016 mg tenofovir encapsulated/mg bola
% tenofovir encapsulation ([1]; TRIS pH 8, GLH 19/20 (2:1) 15 mg/ml, tenofovir 1 mg/ml, standard CHOL/CHEMS, ±SEM): 24.5 ± 2.1%
mg tenofovir encapsulated/mg bola ([1]; TRIS pH 8, GLH 19/20 (2:1) 15 mg/ml, tenofovir 2 mg/ml, standard CHOL/CHEMS): 0.03 mg tenofovir encapsulated/mg bola
% tenofovir encapsulation ([1]; TRIS pH 8, GLH 19/20 (2:1) 15 mg/ml, tenofovir 2 mg/ml, standard CHOL/CHEMS, ±SEM): 21 ± 2.1%
mg tenofovir encapsulated/mg bola ([1]; TRIS pH 8, GLH 19/20 (2:1) 15 mg/ml, tenofovir 5 mg/ml, standard CHOL/CHEMS): 0.03 mg tenofovir encapsulated/mg bola
% tenofovir encapsulation ([1]; TRIS pH 8, GLH 19/20 (2:1) 15 mg/ml, tenofovir 5 mg/ml, standard CHOL/CHEMS, ±SEM): 9 ± 1.4%
mg tenofovir encapsulated/mg bola ([1]; TRIS pH 8, GLH 19/20 (2:1) 20 mg/ml, tenofovir 1 mg/ml, standard CHOL/CHEMS): 0.02 mg tenofovir encapsulated/mg bola
% tenofovir encapsulation ([1]; TRIS pH 8, GLH 19/20 (2:1) 20 mg/ml, tenofovir 1 mg/ml, standard CHOL/CHEMS, ±SEM): 31.4 ± 4.5%
mg tenofovir encapsulated/mg bola ([1]; TRIS pH 8, GLH 19/20 (2:1) 20 mg/ml, tenofovir 2 mg/ml, standard CHOL/CHEMS): 0.022 mg tenofovir encapsulated/mg bola
% tenofovir encapsulation ([1]; TRIS pH 8, GLH 19/20 (2:1) 20 mg/ml, tenofovir 2 mg/ml, standard CHOL/CHEMS, ±SEM): 22.5 ± 3.5%
% tenofovir encapsulation [1, 19]: 9.3%
mg tenofovir encapsulated/mg bola [1, 19]: 0.023 mg tenofovir encapsulated/mg bola
% of the added tenofovir encapsulated ([1]; optimal formulation for PK: 10 mg GLH 19/20 2/1, 1 mg GLH-55b, 2.5 mg stearyl amine, 5 mg tenofovir per mL, HEPES): 20%
amount of the encapsulated tenofovir ([1]; optimal formulation used in first set of PK experiments): 1 mg/mL vesicles
percent of tenofovir encapsulation ([1]; various vesicle formulations, conditions that yielded maximum encapsulation (before optimization)): 18-20%
concentration of tenofovir in the brain ([2]; mice i.v., 7.5 mg/kg tenofovir encapsulated in vesicles with GLH-55b and SA, estimated from calibration curve): 22.7 μg/gr brain
level of tenofovir in brain ([2]; mice, free tenofovir injected IV): less than 0.2 micrograms/gr brain
concentration at 15 min ([2]; mouse, brain, 7.5 mg/kg, mice, encapsulated tenofovir in vesicles, 15 min after IV injection, read-out: amount of tenofovir in brain): 6200 ng/g
concentration at 30 min ([2]; mouse, brain, 7.5 mg/kg, mice, encapsulated tenofovir in vesicles, 30 min after IV injection, read-out: amount of tenofovir in brain): 2200 ng/g
concentration at 60 min ([2]; mouse, brain, 7.5 mg/kg, mice, encapsulated tenofovir in vesicles, 60 min after IV injection, read-out: amount of tenofovir in brain): 1000 ng/g
concentration at 120 min ([2]; mouse, brain, 7.5 mg/kg, mice, encapsulated tenofovir in vesicles, 120 min after IV injection, read-out: amount of tenofovir in brain): 500 ng/g
blood concentration of tenofovir [3]: about 500 ng/ml
tenofovir concentration in the brain ([4]; mice injected with empty vesicles and then free tenofovir): not detected
half-life ([4]; brain, apparent half-life of tenofovir in the brain, mice pretreated with pyrido, tenofovir encapsulated in GLH-19 + GLH-20 vesicles, i.v.): ~40 min
half-life ([4]; serum, actual half-life of the encapsulated tenofovir in the blood, inferred, encapsulated tenofovir only 20% of injected): > 20 min
half-life ([4]; serum, half-life of tenofovir in the blood (apparent), mice i.v., total tenofovir 34 mg/kg of which 6.8 mg/kg encapsulated, reflects free and encapsulated tenofovir): ~20 min
persistence of tenofovir in the brain ([4]; tenofovir encapsulated in GLH-19 vesicles, i.v. mice): did not persist long in the brain
